Measurements published in ChEMBL document CHEMBL1201862, “PubChem BioAssay data set” (2004).
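Assay format: 96-well plates, 48-hour exposure. At the GI50, growth is halved.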 Calls of active or inactive are those of the source. Rule as the data show it: active = GI50 up to about 1.1 µM and inactive = higher.

Assays:
Experiment in all cases: NCI tumour cell line growth inhibition, 48 h
CAKI-1 = tested on: CAKI-1
DU-145 = tested on: DU-145
HCT-15 = tested on: HCT-15
Hs-578T = tested on: Hs-578T
K562 = tested on: K562
M14 = tested on: M14
MDA-MB-231 = tested on: MDA-MB-231
MDA-MB-435 = tested on: MDA-MB-435
MDA-N = tested on: MDA-N
Malme-3M = tested on: Malme-3M
NCI-H460 = tested on: NCI-H460
OVCAR-5 = tested on: OVCAR-5
RPMI-8226 = tested on: RPMI-8226
RXF 393 = tested on: RXF 393
SF-268 = tested on: SF-268
SK-MEL-28 = tested on: SK-MEL-28
SN12C = tested on: SN12C
SR = tested on: SR
SW-620 = tested on: SW-620
U-251 = tested on: U-251

CN(C)CCCCN1c2ccccc2Sc2ccc(C(=O)c3ccccc3)cc21
GI50 (CAKI-1): 2.19 µM (inactive) | GI50 (DU-145): 3.63 µM (inactive) | GI50 (HCT-15): 3.51 µM | GI50 (Hs-578T): 2.22 µM (inactive) | GI50 (K562): 1.57 µM (inactive) | GI50 (M14): 1.67 µM (inactive) | GI50 (MDA-MB-231): 2.11 µM (inactive) | GI50 (MDA-MB-435): 1.9 µM (inactive) | GI50 (MDA-N): 2.65 µM (inactive) | GI50 (Malme-3M): 1.72 µM (inactive) | GI50 (NCI-H460): 2.24 µM (inactive) | GI50 (OVCAR-5): 5.64 µM (inactive) | GI50 (RPMI-8226): 2.24 µM (inactive) | GI50 (RXF 393): 1.22 µM (inactive) | GI50 (SF-268): 5.6 µM (inactive) | GI50 (SK-MEL-28): 1.95 µM (inactive) | GI50 (SN12C): 3.11 µM (inactive) | GI50 (SR): 3.83 µM (inactive) | GI50 (SW-620): 1.77 µM (inactive) | GI50 (U-251): 2.41 µM (inactive)

N#C/C(=C\c1ccc(F)cc1)c1nc(-c2cc3ccccc3oc2=O)cs1
GI50 (CAKI-1): 53.6 µM (inactive) | GI50 (DU-145): 38.6 µM (inactive) | GI50 (HCT-15): 97.5 µM | GI50 (Hs-578T): 15.1 µM (inactive) | GI50 (K562): > 100 µM (inactive) | GI50 (M14): 13.8 µM (inactive) | GI50 (MDA-MB-231): 12.7 µM (inactive) | GI50 (MDA-MB-435): 54.2 µM (inactive) | GI50 (MDA-N): 76.2 µM (inactive) | GI50 (Malme-3M): 15.7 µM (inactive) | GI50 (NCI-H460): 33.5 µM (inactive) | GI50 (OVCAR-5): > 100 µM (inactive) | GI50 (RPMI-8226): 87.9 µM (inactive) | GI50 (RXF 393): 18.6 µM (inactive) | GI50 (SF-268): 16.5 µM (inactive) | GI50 (SK-MEL-28): 44.7 µM (inactive) | GI50 (SN12C): 74 µM (inactive) | GI50 (SR): > 100 µM (inactive) | GI50 (SW-620): 40.4 µM (inactive) | GI50 (U-251): 14.6 µM (inactive)

NC(Cc1ncccn1)C(=O)O (stereo not given)
GI50 (CAKI-1): > 100 µM (inactive) | GI50 (DU-145): > 100 µM (inactive) | GI50 (HCT-15): > 100 µM | GI50 (Hs-578T): > 100 µM (inactive) | GI50 (K562): > 100 µM (inactive) | GI50 (M14): > 100 µM (inactive) | GI50 (MDA-MB-231): > 100 µM (inactive) | GI50 (MDA-MB-435): > 100 µM (inactive) | GI50 (MDA-N): > 100 µM (inactive) | GI50 (Malme-3M): > 100 µM (inactive) | GI50 (NCI-H460): > 100 µM (inactive) | GI50 (OVCAR-5): > 100 µM (inactive) | GI50 (RPMI-8226): > 100 µM (inactive) | GI50 (RXF 393): > 100 µM (inactive) | GI50 (SF-268): > 100 µM (inactive) | GI50 (SK-MEL-28): > 100 µM (inactive) | GI50 (SN12C): > 100 µM (inactive) | GI50 (SR): > 100 µM (inactive) | GI50 (SW-620): > 100 µM (inactive) | GI50 (U-251): > 100 µM (inactive)

O=c1oc2ccccc2cc1-c1ccc([N+](=O)[O-])cc1
GI50 (CAKI-1): > 100 µM (inactive) | GI50 (DU-145): > 100 µM (inactive) | GI50 (HCT-15): > 100 µM | GI50 (Hs-578T): 99.5 µM (inactive) | GI50 (K562): > 100 µM (inactive) | GI50 (M14): > 100 µM (inactive) | GI50 (MDA-MB-231): > 100 µM (inactive) | GI50 (MDA-MB-435): > 100 µM (inactive) | GI50 (MDA-N): > 100 µM (inactive) | GI50 (Malme-3M): > 100 µM (inactive) | GI50 (NCI-H460): 14.6 µM (inactive) | GI50 (OVCAR-5): > 100 µM (inactive) | GI50 (RPMI-8226): > 100 µM (inactive) | GI50 (RXF 393): > 100 µM (inactive) | GI50 (SF-268): 24.8 µM (inactive) | GI50 (SK-MEL-28): > 100 µM (inactive) | GI50 (SN12C): > 100 µM (inactive) | GI50 (SR): 57.9 µM (inactive) | GI50 (SW-620): 25.8 µM (inactive) | GI50 (U-251): 9.53 µM (inactive)

Nc1ncnc2c1ncn2C1OC(CO)C(O)C1N (stereo not given)
GI50 (CAKI-1): > 100 µM (inactive) | GI50 (DU-145): > 100 µM (inactive) | GI50 (HCT-15): > 100 µM | GI50 (Hs-578T): 0.08 µM (active) | GI50 (K562): > 100 µM (inactive) | GI50 (M14): > 100 µM (inactive) | GI50 (MDA-MB-231): > 100 µM (inactive) | GI50 (MDA-MB-435): > 100 µM (inactive) | GI50 (MDA-N): > 100 µM (inactive) | GI50 (Malme-3M): > 100 µM (inactive) | GI50 (NCI-H460): > 100 µM (inactive) | GI50 (OVCAR-5): > 100 µM (inactive) | GI50 (RPMI-8226): > 100 µM (inactive) | GI50 (RXF 393): > 100 µM (inactive) | GI50 (SF-268): > 100 µM (inactive) | GI50 (SK-MEL-28): > 100 µM (inactive) | GI50 (SN12C): > 100 µM (inactive) | GI50 (SR): > 100 µM (inactive) | GI50 (SW-620): > 100 µM (inactive) | GI50 (U-251): > 100 µM (inactive)
